US20240299353A1, “COMPOSITIONS AND METHODS FOR TREATING […] 5-MEO-DMT” (Alvarius Pharmaceuticals Ltd., priority 2021, published 2024)

Key:
rats [1] = test: Elevated plus maze; format: in vivo
Experimental: (§1) In this instance the animals were 9 weeks old at the initiation of drug exposures and we selected just the high (20 mg/kg) dose of 5-MeO-DMT from the molecular study. […] Due to the number of behavioral paradigms to be completed by each animal we divided the study into two cohorts staggered by two weeks with 8 animals coming from each cohort to make up the 16 animals for each treatment group. 23 hours after 5-MeO-DMT administration the animals were introduced to the open field arena where they were allowed to freely explore the area for 5 mins. Following the open field test (OFT) animals were returned to their home cage for 2 hours before beginning either the elevated plus maze (EPM) or pre-pulse inhibition (PPI) testing. 24 hours after completing the OFT animals were returned to the chamber for the first session in novel object (NO1) testing. The animals were returned to their home cage for 2 hours before beginning the EPM or PPI test. 24 hours after NO1 the animals returned to the open field chamber for the second session in novel object (N02) testing. After completing N02 animals were returned to their home cage for 2 hours before they underwent the forced swim test (FST) pre-test. 24 hours later the animals were returned to the FS cylinders for the FST. Upon completion of the FST all animals were euthanized. A timeline of this experimental cohort is described in FIG. 8A.
The experiment was conducted as described for cohort 1 for the first 13 days of injections. There are a number of notable differences in experimental procedures between the two cohorts of animals to be highlighted. […] Finally, the dose of 5-MeO-DMT was reduced to 10 mg/kg. The order and timing of all the behavioral paradigms were kept constant between the cohorts. A timeline of this experimental cohort is described in FIG. 8B. Additionally, 5-MeO-DMT administrations were staggered so animals could be observed for the duration of acute drug effects and to ensure recovery prior to the next animal being injected. The typical symptoms of psychedelic drug administration outlined above were reproduced in all animals administered 5-MeO-DMT.
Our EPM apparatus consisted of a plus-shaped white plastic platform positioned 100 cm above the ground. Two opposite arms of the maze were bordered by vertical walls measuring 20 cm high, with the other two arms open to the environment with no edges. Animals were placed into the centre of the maze facing a closed arm and allowed to explore freely for 5 min. At the conclusion of the test, rats were returned to their home cages and the apparatus was cleaned with 2% distal. Animal movement was recorded during the trial using Any-Maze software. Time spent in open or closed arms, number of entries into open arms and number of grooming behaviors were all quantified (FIG. 10A-10B). Behavioral assessment was conducted in a quiet room under low-level red-light illumination. Behaviors were scored by two observers blind to experimental conditions.

rats [2] = test: Forced swim test; format: in vivo; conditions: cohort 2; for immobility or time spent swimming: between treatment groups
Experimental: as §1
The experiment was conducted as described for cohort 1 for the first 13 days of injections. There are a number of notable differences in experimental procedures between the two cohorts of animals to be highlighted. […] Finally, the dose of 5-MeO-DMT was reduced to 10 mg/kg. […]
The FST apparatus consisted of a clear Plexiglas cylinder measuring 80 cm tall, 20 cm in diameter and filled with 40 cm of 24+1° C. water. […] 24 hours later, rats were again placed in the FST apparatus for 5 min and their activity was video recorded (FIG. 12A-12B). Each video was scored for immobility, swimming, and climbing behavior by trained blinded observers.

hippocampal proteins = test: Hippocampal LC-MS/MS proteomics, chronic cocaine with single psychedelic administration; format: in vivo, Male Wister rats
Experimental: Animals were then randomly allocated to one of five groups and received a single i.p. injection of one of vehicle, 5 mg/kg 5-Meo-DMT, 0.14 mg/kg LSD, 1 mg/kg psilocybin, or 1 mg/kg DOI. On day 15, animals were euthanised and the hippocampus blunt dissected, snap frozen in liquid nitrogen and stored at −80° C. until further processing.
Protein from hippocampal tissue was processed for liquid chromatography tandem Mass Spectrometry (LC-MS/MS). Samples were run on a Thermo Scientific Q Exactive Mass Spectrometer connected to a Dionex Ultimate 3000 (RSLCnano) chromatography system in the UCD Conway Institute Core Mass Spectrometry Facility. Peptide and protein identification of MS/MS spectra were searched against the rat UniProt database using carbamidomethylation (C) as a fixed modification and acetylation (protein N terminus) and oxidation (M) as variable modifications with a false discovery rate filtering of 0.01. MaxQuant was using to generate label-free quantitative (LFQ) ion intensities and the Perseus statistical software contained in the MaxQuant package was used to analyse LFQ ion intensity. Statistical significance (p<0.05, FC±20%) of mean LFQ intensity between treatment groups was determined by two sample t-test. […] Networks were visualised using the stringApp (version 1.6.0) plugin for the Cytoscape software platform (version 3.8.2).

[3] = cohort 1, either treatment or the combination
[4] = cohort 2, either treatment or their combination

With COc1ccc2[nH]cc(CCN(C)C)c2c1 [5-MeO-DMT, 5-methoxy-N,N-dimethyltryptamine] the “secondary anxiety measures, stretch-attenuated posture (SAP) or head dipping” value (rats [1]; cohort 1) was “no treatment effects”, the “total distance travelled, main effect” value (rats [1]; cohort 1, 5-MeO-DMT p<0.0001) was “significant effect” and the total distance travelled (rats [1]; cohort 1, cocaine+20 mg/kg 5-MeO-DMT relative to cocaine alone) was “reduction in the total distance travelled”. For the same compound, the “duration of time spent in the open arms” value (rats [1]; [3]) was “unaffected by either treatment or the combination”, the “number of entries into the open arms” value (rats [1]; [3]) was “unaffected by either treatment or the combination” and the “duration of time spent on the open arms” value (rats [1]; cohort 2, cocaine and 5-MeO-DMT (10 mg/kg) combination relative to control and 5-MeO-DMT alone) was “significantly increased”. The total distance travelled (rats [1]; [4]) was “no effect of either treatment or their combination”, the “immobility or time spent swimming” value (rats [2]) was “no differences in immobility or time spent swimming” and the climbing time (rats [2]; cocaine and 5-MeO-DMT (10 mg/kg) combination relative to control) was “significant increase in climbing time”. The “differential expression of proteins in the control hippocampus” value (hippocampal proteins; single i.p. dose (5-MeO-DMT 5 mg/kg, LSD 0.14 mg/kg, psilocybin 1 mg/kg, DOI 1 mg/kg) vs saline-saline, p<0.05, FC ±20%) was 64 proteins, the “differential expression of proteins in the chronic cocaine hippocampus” value (hippocampal proteins; single i.p. dose after 14 days cocaine 20 mg/kg (5-MeO-DMT 5, LSD 0.14, psilocybin 1, DOI 1 mg/kg) vs cocaine-saline) was 74 proteins and the “reversal of chronic cocaine mediated proteomic changes in the hippocampus” value (hippocampal proteins; single treatment (5-MeO-DMT 5, LSD 0.14, psilocybin 1, DOI 1 mg/kg i.p.)) was 77%.
COC(=O)[C@H]1[C@@H](OC(=O)c2ccccc2)C[C@@H]2CC[C@H]1N2C.Cl [cocaine, cocaine hydrochloride, reference compound] was tested, and the “secondary anxiety measures, stretch-attenuated posture (SAP) or head dipping” value (rats [1]; cohort 1) was “no treatment effects”, the “duration of time spent in the open arms” value (rats [1]; [3]) was “unaffected by either treatment or the combination” and the “number of entries into the open arms” value (rats [1]; [3]) was “unaffected by either treatment or the combination”. For the same compound, the “duration of time spent in the open arms” value (rats [1]; cohort 2, cocaine p=0.0031) was “significantly affected”, the head dipping (rats [1]; cohort 2, cocaine p=0.0054, no post hoc differences) was “significantly affected” and the “number of entries into the open arms” value (rats [1]; cohort 2, cocaine p=0.0055) was “significantly affected”. For the same compound, the total distance travelled (rats [1]; [4]) was “no effect of either treatment or their combination”, the “immobility or time spent swimming” value (rats [2]) was “no differences in immobility or time spent swimming” and the “significantly regulated proteins in the hippocampus between saline and cocaine” value (hippocampal proteins; cocaine 20 mg/kg i.p. daily for 14 days) was 85 proteins.
